Tests used:
[1] = biological target: T1, hPPARα (Homo sapiens, UniProt Q07869); test: cell-based human PPAR-GAL4 chimera luciferase reporter assay in CV-1 cells (PPARα); conditions: CV-1 cells transiently transfected with PPAR LBD-GAL4 chimera and luciferase reporter, 24 hours treatment; read-out: hPPAPα (EC50)
T1 construct: expressed in transfected cells; host or cells: CV-1 cells
T1 sequence (Q07869 239-466 limits assumed): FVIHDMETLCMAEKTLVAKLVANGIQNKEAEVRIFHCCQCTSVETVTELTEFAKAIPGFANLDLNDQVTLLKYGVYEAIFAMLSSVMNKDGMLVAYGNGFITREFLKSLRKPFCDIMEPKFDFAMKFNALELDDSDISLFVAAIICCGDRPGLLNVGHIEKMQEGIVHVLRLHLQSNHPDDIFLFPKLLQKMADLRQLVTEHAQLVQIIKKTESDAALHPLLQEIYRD
Description: (§1) The compounds were evaluated in a cell-based assay to determine their human PPAR activity. The plasmids for human PPAR-GAL4 chimeras were prepared by fusing amplified cDNAs encoding the LBDs of PPARs to the C-terminal end of the yeast GAL4 DNA binding domain. CV-1 cells were grown and transiently tranfected with PerFectin (GTS, San Diego, Calif.) according to the manufacturer's protocol along with a luciferase reporter. Eight hours after transfection, 50 μL of cells were replated into 384 well plates (1×10^5 cells/well). Sixteen hours after replating, cells were treated with either compounds or 1% DMSO for 24 hours. Luciferase activity was then assayed with Britelite (Perkin Elmer) following the manufacturer's protocol and measured with either the Perkin Elmer Viewlux or Molecular Devices Acquest.

[2] = biological target: T2, hPPARγ (Homo sapiens, UniProt P37231); test: cell-based human PPAR-GAL4 chimera luciferase reporter assay in CV-1 cells (PPARγ); conditions: CV-1 cells transiently transfected with PPAR LBD-GAL4 chimera and luciferase reporter, 24 hours treatment
T2 construct: expressed in transfected cells; host or cells: CV-1 cells
T2 sequence (P37231 238-503 limits assumed): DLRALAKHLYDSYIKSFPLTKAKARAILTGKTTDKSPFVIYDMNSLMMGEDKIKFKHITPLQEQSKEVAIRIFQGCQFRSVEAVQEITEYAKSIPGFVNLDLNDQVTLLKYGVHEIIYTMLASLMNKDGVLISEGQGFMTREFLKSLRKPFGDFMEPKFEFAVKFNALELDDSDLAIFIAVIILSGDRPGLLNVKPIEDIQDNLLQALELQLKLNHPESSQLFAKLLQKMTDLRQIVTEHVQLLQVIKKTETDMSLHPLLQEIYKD
Description: as §1

[3] = biological target: T3, hPPARδ (Homo sapiens, UniProt Q03181); test: cell-based human PPAR-GAL4 chimera luciferase reporter assay in CV-1 cells (PPARδ); conditions: CV-1 cells transiently transfected with PPAR LBD-GAL4 chimera and luciferase reporter, 24 hours treatment
T3 construct: expressed in transfected cells; host or cells: CV-1 cells
T3 sequence (Q03181 211-439 limits assumed): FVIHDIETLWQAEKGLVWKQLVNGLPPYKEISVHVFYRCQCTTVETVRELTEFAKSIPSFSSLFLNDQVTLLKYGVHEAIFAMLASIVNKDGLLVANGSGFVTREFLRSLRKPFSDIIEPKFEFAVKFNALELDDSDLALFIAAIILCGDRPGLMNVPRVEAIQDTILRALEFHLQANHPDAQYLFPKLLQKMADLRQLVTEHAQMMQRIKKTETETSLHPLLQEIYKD
Description: as §1

Row | Structure (SMILES) | EC50 [1] [µM] | EC50 [2] [µM] | EC50 [3] [µM]
1 | CCCCN(CCCOc1cccc(CC(=O)O)c1)c1nc2ccccc2o1 | 1 to 100 | > 100 | 1 to 100
2 | O=C(O)Cc1cccc(OCCCN(Cc2ccc(C(F)(F)F)cc2C(F)(F)F)c2nc3ccccc3o2)c1 | > 100 | < 1 | 1 to 100
3 | O=C(O)Cc1cccc(OCCCN(Cc2ccc(C(F)(F)F)cc2C(F)(F)F)c2ccccn2)c1 | > 100 | < 1 | < 1
4 | CCc1cnc(N(CCCOc2cc3ccccc3cc2C(=O)O)Cc2ccc(C(F)(F)F)cc2C(F)(F)F)nc1 | 1 to 100 | < 1 | > 100
5 | CCCCN(CCCOc1c(C(=O)O)ccc2ccccc12)c1nc2ccccc2s1 | > 100 | 1 to 100 | 1 to 100
6 | O=C(O)c1ccc2ccccc2c1OCCCN(Cc1ccc(C(F)(F)F)cc1)c1nc2ccccc2s1 | > 100 | < 1 | > 100
7 | O=C(O)c1ccc2ccccc2c1OCCCN(Cc1ccc(C(F)(F)F)cc1C(F)(F)F)c1nc2ccccc2o1 | > 100 | < 1 | > 100

Continued, values first:

Row | EC50 [1] [µM] | EC50 [2] [µM] | EC50 [3] [µM] | Structure (SMILES)
8 | < 1 | < 1 | < 1 | CCc1cnc(N(CCCOc2cccc(CC(=O)O)c2)Cc2ccc(C(F)(F)F)cc2C(F)(F)F)nc1
9 | > 100 | < 1 | 1 to 100 | CCCCN(CCCOc1cccc(CC(=O)O)c1)c1ncc(CC)cn1
10 | > 100 | < 1 | 1 to 100 | CCCCN(CCCOc1cccc(CC(=O)O)c1)c1ccccn1
11 | 1 to 100 | > 100 | 1 to 100 | CCCCN(CCCOc1cccc(CC(=O)O)c1)c1nc2ccccc2s1
12 | < 1 | < 1 | < 1 | O=C(O)Cc1cccc(OCCCN(Cc2ccc(C(F)(F)F)cc2)c2nc3ccccc3s2)c1
13 | > 100 | < 1 | 1 to 100 | O=C(O)Cc1cccc(OCCCN(Cc2ccc(C(F)(F)F)cc2C(F)(F)F)c2nc3ccccc3s2)c1
14 | 1 to 100 | < 1 | > 100 | CCc1cnc(N(CCCOc2c(C(=O)O)ccc3ccccc23)Cc2ccc(C(F)(F)F)cc2C(F)(F)F)nc1
15 | > 100 | > 100 | > 100 | CCc1cnc(N(CCCOc2ccc3cc(C(=O)O)ccc3c2)Cc2ccc(C(F)(F)F)cc2C(F)(F)F)nc1
16 | > 100 | < 1 | > 100 | CCCCN(CCCOc1c(C(=O)O)ccc2ccccc12)c1ncc(CC)cn1
17 | > 100 | < 1 | > 100 | CCCCN(CCCOc1c(C(=O)O)ccc2ccccc12)c1ccccn1
18 | > 100 | 1 to 100 | > 100 | CCCCN(CCCOc1c(C(=O)O)ccc2ccccc12)c1nc2ccccc2o1

— patent US20050070532A1, “Aryl compounds as modulators of PPARS and methods of treating metabolic disorders” (priority 2003, published 2005)
